From publication PMC8231572, “New Heparanase-Inhibiting Triazolo-Thiadiazoles Attenuate Primary Tumor Growth and Metastasis” (Cancers, 2021)
“Also recorded” adds a separate entry of the source.

Experiments:
[1] = target: T1, heparanase (Homo sapiens, UniProt Q9Y251); assay: Colorimetric heparanase assay (fondaparinux/Arixtra cleavage, WST-1); assay type: biochemical; settings: fondaparinux substrate, heparanase 140 pM, pH 5.0, 37 °C, 18 h; for IC50: read-out: IC50, inhibition of heparanase enzymatic activity (converted)
T1 sequence (Q9Y251 158-543 limits assumed): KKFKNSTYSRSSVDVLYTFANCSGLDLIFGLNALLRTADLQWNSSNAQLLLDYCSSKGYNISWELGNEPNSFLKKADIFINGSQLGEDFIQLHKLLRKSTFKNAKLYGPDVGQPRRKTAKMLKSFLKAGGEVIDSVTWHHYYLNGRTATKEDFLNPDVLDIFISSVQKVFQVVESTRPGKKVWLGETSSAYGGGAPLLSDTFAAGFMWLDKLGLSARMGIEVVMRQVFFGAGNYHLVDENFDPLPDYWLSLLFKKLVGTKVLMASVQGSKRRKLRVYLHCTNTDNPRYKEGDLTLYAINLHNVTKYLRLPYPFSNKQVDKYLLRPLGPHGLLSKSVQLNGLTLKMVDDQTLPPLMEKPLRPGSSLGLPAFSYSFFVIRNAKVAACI
T1 sequence (Q9Y251 36-109 limits assumed): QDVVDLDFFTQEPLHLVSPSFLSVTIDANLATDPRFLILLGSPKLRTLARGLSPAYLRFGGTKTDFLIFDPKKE
Experimental: The assay was carried out in a 96-well plate in which the formation of the disaccharide product upon cleavage of fondaparinux (Arixtra, GlaxoSmithKline, Brentford, UK) was estimated using WST-1 tetrazolium salt as described earlier. In brief, the reaction system (100 μL) comprised sodium acetate buffer (pH 5.0, 40 mM) and fondaparinux ([…]) with or without different doses of chemicals under investigation. The assay was initiated by the addition of recombinant heparanase to make the final concentration of 140 pM. The reaction vessels were placed at 37 °C for 18 h, followed by the addition of stop solution (100 μL). WST-1 prepared in 0.1 M NaOH served as a stop solution. Thereafter, the plates were incubated at 60 °C for 60 min, and absorbance was measured at 584 nm. N-(4-([4-(1H-Benzoimidazol-2-yl)-arylamino]-methyl)-phenyl)-benzamide (compound #98) was used as a reference compound. The title compounds were examined for their inhibitory efficacy towards heparanase at 10 and 50 μg/mL. Compounds that yielded inhibition at these concentrations were further tested at lower concentrations to determine their IC50.
The newly synthesized compounds presented in Table 1 were examined for their ability to inhibit the enzymatic activity of recombinant heparanase. For the initial screening of compounds, we applied a colorimetric assay based on the cleavage of the synthetic heparin pentasaccharide fondaparinux (Arixtra). The assay measures the appearance of a disaccharide product of heparanase-catalyzed fondaparinux cleavage, using the tetrazolium salt WST-1 [23]. All compounds were first tested for inhibition of heparanase at 10 and 50 μg/mL (not shown). Compounds that yielded inhibition at these high concentrations were further examined at lower concentrations to determine their IC50 (Figure 2).

[2] = target: T1, heparanase; assay: ECM degradation heparanase assay (sulfate-labeled ECM, Sepharose 6B gel filtration); assay type: biochemical; settings: heparanase 200 ng, 5 h; for inhibition of heparanase activity (ECM degradation): 5 µg/mL compound; for inhibition at 25 µg/mL: 25 µg/mL compound
Experimental: ECM degradation heparanase assay was carried out as reported earlier. Briefly, ECM labeled with sulfate [^35S] [25] and coating the surface of 35-mm cultures plates was treated with heparanase (200 ng/mL) with or without compounds under investigation. The medium was collected to examine the cleavage of HS proteoglycans and subjected to molecular sieving on Sepharose 6B columns. The radioactivity was measured in the eluted fractions (0.2 mL). Blue dextran and phenol red were used to mark the excluded volume (Vo) and included volume (Vt), respectively. The cleaved HS chains were eluted at 0.5 < Kav < 0.8 (fractions 16–32), and the nearly intact proteoglycan was eluted with the void volume.
To validate the results and better resemble the in vivo situation, we applied metabolically sulfate [Na2^35SO4] labeled extracellular matrix (ECM) deposited by cultured endothelial cells. This naturally produced substrate closely resembles the subendothelial basement membrane in its composition, biological function, and barrier properties. […] This semi-quantitative assay measures release of radioactive heparan sulfate (HS) degradation fragments from an insoluble extracellular matrix (ECM) that is firmly bound to a culture dish.
(§1) Figure 3 Inhibition of ECM degradation and cell invasion. (A) ECM degradation. Active heparanase (200 ng) was incubated for 5 h without (red) or with 5 and 25 µg/mL of 4-CMI, 4-MDI, or 4-MMI on dishes coated with sulfate-labeled ECM. Labeled material released from the ECM was subjected to gel filtration (Sepharose 6B). Heparan sulfate degradation fragments are typically eluted in fractions 18–30. (B) Cell invasion. U87 human glioma cells (2 × 10^5) were plated onto Matrigel-coated 8 μm transwell filters and incubated (6 h, 37 °C) in the absence (Con) or presence of 4-MMI or 4-CMI (10 µg/mL). (C) Dose–response showing the effect of compound 4-MMI (2.5, 10, and 40 µg/mL) on U87 cell invasion. Invading cells adhering to the lower side of the membrane were visualized (top panels) and quantified (bottom panel) in 7 random fields as described in ‘Materials and Methods’.

[3] = test system: U87 human glioma cells; assay: Cell invasion through Matrigel-coated transwell filters (Boyden chambers); assay type: cell-based; settings: 10 µg/mL, 6 h, 37 °C, Matrigel-coated 8 μm transwell filters
Experimental: Invasion assay was performed using Boyden chambers as reported previously. Briefly, U87 cells (5 × 10^5) were seeded into the upper chamber of the invasion chamber in a medium devoid of serum, and the lower chamber contained media supplemented with serum. The cell invasion on treatment with title compounds (4-MMI, 4-CMI; […]) was analyzed by staining with 0.5% crystal violet (Sigma-Aldrich) and photographed.
as §1

[4] = test system: 4T1 mouse breast carcinoma cells; assay: 4T1 breast carcinoma experimental metastasis, IVIS bioluminescence imaging; assay type: in vivo, BALB/c mice; settings: IVIS day 13
Experimental: 4TI mouse breast cancer cells tagged with luciferase (1.5 × 10^5/0.1 mL/BALB/c mouse) were inoculated intravenously. Test compounds (i.p., 500 μg/mouse) or DMSO (0.1 mL/mouse) were administered 20 min before cell injection. The mice were analyzed using IVIS bioluminescent on day 7 and day 13 post-inoculation. These cells metastasize primarily to the lungs.
The bioluminescence imaging of tumors generated from luciferase-expressing cancer cells was carried out using a highly sensitive, cooled charge-coupled device camera assembled in a specimen box (IVIS; Xenogen Corp, Hopkinton, MA, USA). The imaging has advantages such as real-time capture, non-invasive, and quantitative values. For this, the tumor-bearing mice were intraperitoneally administered with a luciferase substrate D-luciferin at a dose of 150 mg/kg body weight. The experimental animal was anesthetized and kept in a camera box followed by continuous exposure to isoflurane (EZAnesthesia, Palmer, PA, USA). The bioluminescence from the tumor mass was detected by the IVIS system, and, subsequently, the tumor burden was quantified using Living Image software (Xenogen).
Figure 4 Inhibition of 4T1 breast carcinoma experimental metastasis. […] Quantification of the luciferase intensities is shown graphically in the lower panel, as described in ‘Section 2. […]

[5] = test system: MPC-11 mouse myeloma cells; assay: MPC-11 syngeneic myeloma tumor growth; assay type: in vivo
Experimental: The mouse myeloma (MPC-11) cells were gently washed with PBS and the cell number was adjusted to 5 × 10^6 cells/mL. Thereafter, six-week-old female BALB/c mice (n = 6) were subcutaneously injected with washed MPC-11 cells (5 × 10^5/0.1 mL). The experimental animals were treated with either DMSO alone (0.1 mL/mouse) or 4-MMI (daily 200 μg/mouse, i.p.) starting from day 2 after the implantation of tumor cells, for 12 days. The tumor size was measured using calipers on day 8 and day 12. The tumor volume (V) was determined using the equation V = L × W^2 × 0.52, where L is the length and W is the width of the tumor. Lastly, the mice were euthanized and xenograft tumors were removed, weighed, and fixed using formalin for further studies.
Figure 5 MPC-11 tumor growth. Cells (MPC-11 mouse myeloma) from exponential cultures were washed with PBS and brought to a concentration of 5 × 10^6 cells/mL. Cell suspension (5 × 10^5/0.1 mL) was inoculated subcutaneously at the right flank of 6-week-old female BALB/c mice (n = 6). Mice were treated with either DMSO (0.1 mL/mouse) or test compound (daily 200 µg/mouse, i.p.), starting on day 2 after the injection of tumor cells, for 12 days. Tumor size was determined on days 8 and 12 by externally measuring the tumors in two dimensions using a caliper (A, p < 0.001). […]

[6] = test system: VEGF; assay: Immunostaining of MPC-11 tumor sections with anti-VEGF antibodies; assay type: in vivo, BALB/c mice; settings: tumors of mice treated daily with 200 μg/mouse i.p.
Experimental: Next, we examined the capacity of compound 4-MMI to inhibit myeloma primary tumor growth. For this purpose, we applied the MPC-11 syngeneic myeloma model. Briefly, BALB/c mice were implanted subcutaneously with MPC-11 mouse myeloma cells (0.5 × 10^6/mouse) and treated with either DMSO (0.1 mL/mouse) or 4-MMI (daily 200 μg/mouse, i.p.), starting on day two after tumor cell inoculation. Xenograft Tumor size was measured on days 8 and 12 (Figure 5A), resected, and weighed (Figure 5B) (see also Figure S2).
Figure S2. MPC-11 tumor growth. MPC-11 cells were inoculated subcutaneously at the right flank of 6-weeks old female Balb/C mice (n=6). Mice were treated with either DMSO (0.1 ml/mouse) or 4-MMI (daily 200 μg/mouse, i.p.) starting on day 2 after the injection of tumor cells, for 12 days. Tumor size was determined on days 8 and 12 (left panel). At the end of the experiment, mice were sacrificed and the tumors were resected and weighed (right panel). For more detail see figure 5.
Figure S3. Immunostaining. Tumors produced by untreated (control) a nd 4-MMI treated Balb/c mice were removed (day 13), fixed and embedded in paraffin. Five micron sections were subjected to immunostaining applying anti-VEGF antibodies. Shown are representative images (original magnification x100). […]

[7] = test system: tumor cell; set-up: method as in PMID 28359266; settings: cited from earlier work

Molecule	IC50 [1] [µM]	inhibition of heparanase activity (ECM degradation) [2]	inhibition at 25 µg/mL [2] [%]	invasion capacity of U87 cells [3]	also measured
Oc1ccc(I)cc1-c1nn2c(-c3ccc(Cl)cc3)nnc2s1 [4-CMI, 2-(3-(4-chlorophenyl)-[1,2,4]triazolo[3,4-b][1,3,4]thiadiazol-6-yl)-4-iodophenol]	6.6	little or no inhibition	50 to 70	significantly inhibited	
Cc1ccc(-c2nnc3sc(-c4cc(I)cc(I)c4O)nn23)cc1 [4-MDI, 2,4-diiodo-6-(3-(p-tolyl)-[1,2,4]triazolo[3,4-b][1,3,4]thiadiazol-6-yl)phenol]	22.3	little or no inhibition	50 to 70		
Cc1ccc(-c2nnc3sc(-c4cc(I)ccc4O)nn23)cc1 [4-MMI, 4-iodo-2-(3-(p-tolyl)-[1,2,4]triazolo[3,4-b][1,3,4]thiadiazol-6-yl)phenol]	7.14	little or no inhibition	50 to 70	significantly inhibited	inhibition of 4T1 experimental metastasis (extravasation and lung colonization, luciferase intensity) ([4]; 500 μg/mouse i.p. 20 min before i.v. cell inoculation): inhibited the extravasation of 4T1 cells and their subsequent colonization in the mouse lungs; also recorded: nearly fourfold inhibition; tumor growth and tumor burden (tumor size days 8 and 12, tumor weight) ([5]; daily 200 μg/mouse i.p. from day 2 for 12 days, s.c. MPC-11 tumors): effectively and markedly decreased the rate of tumor growth and the tumor burden; also recorded: profound inhibition of tumor growth and burden; signs of distress and toxicity ([5]; daily administration of 200 ug/mouse/day): no signs of distress and toxicity; VEGF levels in tumor sections [6]: marked decrease in the levels of VEGF; also recorded: profound reduction in VEGF levels
Oc1c(I)cc(I)cc1-c1nn2c(-c3ccccc3)nnc2s1 [DTP, 2,4-Diiodo-6-(3-phenyl-[1,2,4]triazolo[3,4-b][1,3,4]thiadiazol-6yl)phenol, reference compound]	54.9				IC50 values, inhibition of tumor cell proliferation, migration, and invasion in vitro [7]: micromolar range
N-(4-([4-(1H-Benzoimidazol-2-yl)-arylamino]-methyl)-phenyl)-benzamide [Compound #98, reference compound]					IC50, inhibition of heparanase enzymatic activity [1]: 0.7 µg/mL
Roneparstat [reference compound]					inhibition of 4T1 experimental metastasis (luciferase intensity) ([4]; positive control 150 µg/mouse i.p. 20 min before i.v. cell inoculation): comparable
